Experimental data from US6087358A (priority 1997, dated 2000).
Converted amounts (≈) assume the structure as drawn. Where two headings read alike, the source gives them in different places.

Experiments:
[1] = test system: Mycobacterium bovis BCG (recombinant strain); assay: microbe, parasite or virus in culture; format: cell-based; details: 6 days 37° C.; for MIC: Mycobacterium tuberculosis variant bovis BCG, BCG, 144 h, read-out: MIC, column A, 3(S) compounds
[2] = test system: Clostridium difficile ATCC 17857; assay: In vitro inhibition of Clostridium difficile (Oxyrase broth microdilution MIC); format: cell-based; details: Clostridioides difficile, ATCC17857; Clostridium difficile ATCC 17857, Oxyrase broth; read-out: MIC, column D, 3(S) compounds
[3] = test system: Mycobacterium bovis (rBCG-lux); assay: microbe, parasite or virus in culture; format: cell-based, Mycobacterium bovis bacille Calmette Guerin; details: Mycobacterium tuberculosis variant bovis, 72 h; read-out: % of control, measured in RLUs
[4] = test system: Cryptosporidium parvum; assay: Inhibition of Cryptosporidium parvum (ELISA, infected HCT-8 monolayers); format: cell-based
Protocol: Susceptibility testing against Cryptosporidium was performed according to published procedures (K. Woods, M. Nesterenko, S. Upton, "Development of a microtiter ELISA to quantify development of Cryptosporidium parvum in vitro," FEMS Microbiology Letters, 128:89-94 (1995).
Compounds were solubilized to a concentration of 100 mg/mL in 100% DMSO. DMSO solutions of test compounds were added to the test wells of a microplate at a volume that produced a final concentration of DMSO of 0.2%. Monolayers of human ileocecal adenocarcinoma cells (HCT-8) were prepared by growth in RPMI 1640 medium in 96-Well tissue culture trays for 24 h. Oocysts of C. parvum were allowed to excyst in 10% bleach for 10 min prior to use. Monolayers were then infected with 2-3×10^4 oocysts/well and incubated in the presence or absence of compound for 48 h at 35° C. in 5% CO2 and 95% humidity. Background consisted of wells containing killed oocysts (freeze thaw cycle following 30 sec exposure to liquid nitrogen). Growth control wells were infected with 2-3×10^4 oocysts/well in the absence of test compounds. At the end of incubation, wells were washed and fixed by adding 100 uL of 4% formalin in phosphate buffered saline (pH 7.3) per well for 2 h. After blocking with 1% bovine serum albumin, and 0.002% Tween 20, 50 uL of rat anti-Cryptosporidium membrane protein antiserum was added. After 30 min, wells were washed in PBS and 50 uL of secondary antibody (goat anti-rat antibody conjugated with horseradish peroxidase) was added. After 20-30 min, wells were washed again in PBS and 50 uL of 3,3',5,5'-tetramethylbenzidine solution was added. Plates were allowed to develop for 10-15 min and the optical density was read at 630 nm. Percent inhibition was calculated by comparing the optical density of the drug treated group to that of the untreated control.

[5] = test system: Helicobacter pylori; assay: In vitro inhibition of Helicobacter pylori (broth microdilution MIC); details: for MIC: Helicobacter pylori
[6] = Cryptosporidium parvum, HCT-8, 25 μg/mL, 48 h, read-out: Percent Inhibition of C. parvum
[7] = Cryptosporidium parvum, HCT-8, 50 μg/mL, 48 h, read-out: Percent Inhibition of C. parvum
[8] = Cryptosporidium parvum, HCT-8, 100 μg/mL, 48 h, read-out: Percent Inhibition of C. parvum

Compound: O=[N+]([O-])c1cn2c(n1)OC[C@@H](OCc1c(F)c(F)c(F)c(F)c1F)C2 [PA-652]
- MIC [1]: > 5 µg/mL
- MIC [2]: 3.12 µg/mL (≈ 8.54 µM)

Compound: [H]/N=C(/N)N[C@H]1[C@H](O)[C@@H](O)[C@H](O[C@@H]2O[C@@H](C)[C@](O)(C=O)[C@H]2O[C@@H]2O[C@@H](CO)[C@H](O)[C@@H](O)[C@@H]2NC)[C@@H](N/C(N)=N\[H])[C@@H]1O [Streptomycin]
- activity at 0.15 µg/mL [3]: 63.5%
- activity at 0.31 µg/mL [3]: 39.8%
- activity at 0.62 µg/mL [3]: 19.6%
- activity at 1.25 µg/mL [3]: 11.7%
- activity at 2.5 µg/mL [3]: 8%
- activity at 5 µg/mL [3]: 4.4%

Compound: O=C(Nc1ccc(OC(F)(F)F)cc1)N[C@@H]1COc2nc([N+](=O)[O-])cn2C1 [PA-1298]
- MIC [1]: 0.015 µg/mL (≈ 0.0387 µM)
- Toxic (given in place of percent inhibition) ([4]; 200 μg/mL, HCT-8 monolayers): Toxic
- inhibition at 25 µg/mL [4, 6]: 11.9%
- inhibition at 50 µg/mL [4, 7]: 30%
- inhibition at 100 µg/mL [4, 8]: 85%

Compound: Cc1ncc([N+](=O)[O-])n1CCO [Metronidazole, reference compound]
- MICs of control drugs relative to expected values ([5]; H. pylori ATCC 43): within the expected values
- MIC ([5]; 72 h, read-out: MIC against Helicobacter pylori, strain 17 (Table 5A)): 32 µg/mL (≈ 187 µM)
- MIC ([5]; 72 h, read-out: MIC against Helicobacter pylori, strain 19 (Table 5A)): 0.25 µg/mL (≈ 1.46 µM)
- MIC ([5]; 72 h, read-out: MIC against Helicobacter pylori, strain 20 (Table 5A)): 1 µg/mL (≈ 5.84 µM)
- MIC ([5]; 72 h, read-out: MIC against Helicobacter pylori, strain 40 (Table 5A)): 0.25 µg/mL (≈ 1.46 µM)
- MIC ([5]; 72 h, read-out: MIC against Helicobacter pylori, strain 43 (Table 5A)): 0.032 µg/mL (≈ 0.187 µM)
- MIC ([5]; 72 h, read-out: MIC against Helicobacter pylori, strain 76 (Table 5A)): 32 µg/mL (≈ 187 µM)
- MIC ([5]; 72 h, read-out: MIC against Helicobacter pylori, strain B40, Met-S, Clar-S (Table 5B)): < 0.5 µg/mL
- MIC ([5]; 72 h, read-out: MIC against Helicobacter pylori, strain B76, Met-R, Clar-S (Table 5B)): 8 µg/mL (≈ 46.7 µM)
- MIC ([5]; 72 h, read-out: MIC against Helicobacter pylori, strain C1649, Met-R, Clar-R (Table 5B)): 16 µg/mL (≈ 93.5 µM)
- MIC ([5]; 72 h, read-out: MIC against Helicobacter pylori, strain C11403, Met-S, Clar-R (Table 5B)): < 0.5 µg/mL
- MIC ([5]; 72 h, read-out: MIC against Helicobacter pylori, strain C19765 (Table 5B)): 8 µg/mL (≈ 46.7 µM)
- MIC ([5]; 72 h, read-out: MIC against Helicobacter pylori, strain RD26, Met-S, Clar-S (Table 5B)): 1 µg/mL (≈ 5.84 µM)
- MIC ([5]; 72 h, read-out: MIC against Helicobacter pylori, strain rd26, Met-S, Clar-S (Table 5B)): 1 µg/mL (≈ 5.84 µM)
- MIC ([5]; ATCC43504, 72 h, read-out: MIC against Helicobacter pylori, strain ATCC 43504 (Table 5A)): 128 µg/mL (≈ 748 µM)
- MIC ([5]; ATCC43504, 72 h, read-out: MIC against Helicobacter pylori, strain ATCC 43504, Met-R, Clar-S (Table 5B)): 128 to 256 µg/mL (≈ 748 to 1500 µM)
- MIC ([5]; ATCC43526, 72 h, read-out: MIC against Helicobacter pylori, strain ATCC 43526, Met-R, Clar-S (Table 5B)): 16 µg/mL (≈ 93.5 µM)
- MIC ([5]; ATCC43579, 72 h, read-out: MIC against Helicobacter pylori, strain ATCC 43579, Met-S, Clar-S (Table 5B)): 2 µg/mL (≈ 11.7 µM)
- MIC ([5]; ATCC43629, 72 h, read-out: MIC against Helicobacter pylori, strain ATCC 43629, Met-S, Clar-S (Table 5B)): < 0.5 µg/mL

Compound: NCC[C@H](O)C(=O)N[C@@H]1C[C@H](N)[C@@H](O[C@H]2O[C@H](CN)[C@@H](O)[C@H](O)[C@H]2O)[C@H](O)[C@H]1O[C@H]1O[C@H](CO)[C@@H](O)[C@H](N)[C@H]1O [Amikacin]
- activity at 0.15 µg/mL [3]: 52.9%
- activity at 0.31 µg/mL [3]: 31.7%
- activity at 0.62 µg/mL [3]: 18.9%
- activity at 1.25 µg/mL [3]: 18.1%
- activity at 2.5 µg/mL [3]: 10.7%
- activity at 5 µg/mL [3]: 5.2%

Compound: COC(C(=O)N[C@@H]1COc2nc([N+](=O)[O-])cn2C1)(c1ccccc1)C(F)(F)F (stereo partly drawn) [PA-1170]
- MIC, column A, 3(S) compounds [1]: 0.13
- Percent Inhibition of C. parvum ([4]; 25 μg/mL, 48 h): -3%
- Percent Inhibition of C. parvum ([4]; 50 μg/mL, 48 h): -6%
- Percent Inhibition of C. parvum ([4]; 100 μg/mL, 48 h): 16%
- Percent Inhibition of C. parvum ([4]; 200 μg/mL, 48 h): -3.6%

Compound: O=[N+]([O-])c1cn2c(n1)OC[C@@H](OCc1ccc(F)cc1F)C2 [PA-654]
- MIC [1]: > 5 µg/mL
- MIC [2]: 3.12 µg/mL (≈ 10 µM)

Compound: O=C(N[C@@H]1COc2nc([N+](=O)[O-])cn2C1)c1ccc(OC(F)(F)F)cc1 [PA-1150]
- MIC [1]: 0.5 µg/mL (≈ 1.34 µM)
- inhibition at 25 µg/mL [4, 6]: 4.8%
- inhibition at 50 µg/mL [4, 7]: 1.7%
- inhibition at 100 µg/mL [4, 8]: 30%
- inhibition at 200 µg/mL ([4]; Cryptosporidium parvum, HCT-8, 200 μg/mL, 48 h, read-out: Percent Inhibition of C. parvum): 96.2%

Compound: CCCCCCCCO[C@@H]1COc2nc([N+](=O)[O-])cn2C1 [PA-602, 3S n-Octyloxy-6-nitro-2H-3,4-dihydro-[2-1b]imidazopyran]
- MIC [1]: < 5 µg/mL
- MIC [2]: 3.12 µg/mL (≈ 10.5 µM)

Compound: O=[N+]([O-])c1cn2c(n1)OC[C@@H](OCc1ccc(F)cc1)C2 [PA-655]
- MIC [1]: > 5 µg/mL
- MIC [2]: 6.25 µg/mL (≈ 21.3 µM)
